Data taken from patent US20170340636A1, “COMPOSITIONS AND METHODS FOR INHIBITION OF AUTOPHAGY” (Board of Regents, The University of Texas System, priority 2016, published 2017).
Entries after “also recorded” stand apart in the source; their conditions may differ.

How the values were obtained:
[1] = target: T1, TAOK2 (Rattus norvegicus, UniProt Q9JLS3); assay: Differential scanning fluorimetry (DSF) binding assay against TAOK2; conditions: DSF melt temperature shift of TAOK2, 5 μM TAOK2, compound 1 μM
T1 construct: made in house
T1 sequence (Q9JLS3 1-320 limits assumed): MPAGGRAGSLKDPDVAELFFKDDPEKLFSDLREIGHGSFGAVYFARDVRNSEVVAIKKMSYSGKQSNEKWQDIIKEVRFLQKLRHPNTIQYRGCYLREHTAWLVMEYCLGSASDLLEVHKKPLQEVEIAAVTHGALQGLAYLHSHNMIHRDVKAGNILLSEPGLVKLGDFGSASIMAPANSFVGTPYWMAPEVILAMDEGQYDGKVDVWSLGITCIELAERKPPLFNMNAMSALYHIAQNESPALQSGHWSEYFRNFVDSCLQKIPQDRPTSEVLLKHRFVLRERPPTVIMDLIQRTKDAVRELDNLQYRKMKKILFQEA
Protocol: (§1) Differential scanning fluorimetry binding assays of selected compounds against TAOK2 were conducted to measure strength of compound binding. A solution of 5 μM TAOK2, 50 mM MgCl2, 50 mM HEPES pH 7.5, and 2.5x SyproOrange(Life Technologies) was made. Compound was added to a final concentration of 1 μM. 25 μl of the reaction solution was added to the wells of a Biorad Multiplate 96 wellclear PCR plate. The plate was covered with a Biorad Microseal ‘B’ seal. Plates were read in a Biorad CFX96 Real-Time PCR system. The temperature was increased from 4° C. to 80° C., with fluorescence measurements being taken every 0.5° C. in the 6-FAM Fluorescein channel. The fluorescence response to heat curve was fit to a binding isotherm in order to determine the inflection point, which was taken as the melt temperature (Tm).
The prevalence of multiple heterocycles in the compounds is reflective of the composition of the screen (described in Methods in Supplemental Material). These 13 compounds were purchased from Chembridge Inc. and ChemDiv Inc. for measurement of direct binding using Differential Scanning Fluorimetry (DSF). DSF measures protein melt temperature (Tm) with a lipophilic dye (SyproOrange). As the temperature of the solution is increased, measurements of dye fluorescence are taken. When the protein begins to denature, hydrophobic regions in the protein are exposed, and the dye is able to bind. This binding insulates the dye from the surrounding water, reducing quenching effects and allowing fluorescence. Binding of small molecules to protein has a stabilizing effect, and this is seen by an increase in melt temperature (Table 1). The ΔTm values ranged from 3.0 to −0.6° C. The three compounds with the highest positive shifts were SW034538, SW163112, and SW083688, with 3° C., 2.2° C., and 2° C. shifts, respectively.

[2] = test system: U2OS GFP-LC3 cells; assay: GFP-LC3 accumulation by flow cytometry (autophagic flux); assay type: cell-based, human; conditions: 50 μM, 24 hours
Protocol: FIG. 4A) U2OS cells stably expressing the GFP-LC3 fusion transgene were treated with the indicated compound at 50 μM concentration for 24 hours before GFP fluorescence was measured by flow cytometry. The median fluorescent value from 20,000 cells per condition was normalized to that of vehicle alone (DMSO) within a given experiment. The mean+SD of >2 independent experiments is shown. ****, p<0.0001; ***, p<0.001; **, p<0.01; ns, p>0.05 versus vehicle alone (DMSO) by unpaired t test. FIG. 4B) TAOK2 inhibitors induce accumulation of p62. U2OS GFP-LC3 cells were treated with the indicated compounds at 50 μM concentration, or DMSO alone, for 24 hours. Lysates were collected and analyzed by western blot using the indicated antibodies. XPB was used as a loading control.
U2OS GFP-LC3 cells were seeded in 6-well plates at 150,000 cells per well in Dulbecco's Modified Eagle Medium supplemented with 10% fetal bovine serum. Twenty-four hours after seeding, the indicated compounds were added to a final concentration of 50 μM, or an equivalent volume of vehicle alone (DMSO) was added. Twenty-four hours after compound addition, cells were rinsed with PBS (Phosphate-Buffered Saline) and analyzed by flow cytometry using a FACS Calibur (BD Biosciences) to measure media GFP fluorescence per cell.
It had previously been determined that TAOK2 is required for autophagic flux in cancer cells. siRNA targeting TAOK2 elicited an expression response similar to siRNA targeting known autophagy genes, such as ULK1, a protein kinase involved in mTOR and AMPK signaling, in the human colon cancer cell line HCT116. TAOK2 depletion also impaired autophagic flux in human osteosarcoma cell line U2OS engineered to stably express the autophagy marker 1A/1B-light chain 3 fused to GFP (GFP-LC3), a microtubule associated protein.
Degradation of the autophagy scaffold and LC3 binding protein p62 is a second marker of autophagic flux. p62 degradation was assayed by Western blotting (FIG. 4B).

[3] = test system: p38 and ASK1; assay: DSF selectivity for TAOK2 over small panel of other MAPK cascade members; assay type: binding; conditions: versus p38 and ASK1
Protocol: as §1
The difference between the TAOK2 ΔTm and that of p38 and ASK1 was determined. […] The majority of the other compounds were also preferentially inhibitory toward TAOK2. Of the 13 compounds, SW034538, SW172006 and SW083688 were cross-verified for selectivity by performing a specificity screen against 45 kinases commercially at Eurofins Cerep, Inc. (FIG. 3).

Compound	ΔTm at 1 µM [1] [°C]	impairment of autophagic flux (accumulation of GFP-LC3) [2]	selectivity for TAOK2 according to DSF [3]
CCOCCCn1c(=S)[nH]c2cc(C(=O)NCC3COc4ccccc4O3)ccc2c1=O (stereo not drawn) [SW083688]	2	effective	selective
CS(=O)(=O)c1ccc2nc(NC(=O)CCCOc3ccc(Cl)cc3)sc2c1 [SW172006]	1.3	effective	selective
CCC(=O)Nc1nc(C)c(-c2csc(Nc3cc(OC)ccc3OC)n2)s1 [SW034538]	3	showing inhibition; also recorded: effective	selective
